Laboratory results published in article PMC9030833, “Molecular Modeling and Experimental Evaluation of Non-Chiral Components of Bergamot Essential Oil with Inhibitory Activity against Human Monoamine Oxidases” (Molecules, 2022).

Key:
hMAO-B = molecular target: T1, hMAO-B (Homo sapiens, UniProt P27338); experiment: In vitro hMAO-B inhibition, spectrophotometric Kynuramine deamination assay; assay type: biochemical
T1 construct: purchased Sigma-Aldrich; host or cells: insect cells (BTI-TN-5B1-4), recombinant baculovirus
T1 sequence (P27338 1-520): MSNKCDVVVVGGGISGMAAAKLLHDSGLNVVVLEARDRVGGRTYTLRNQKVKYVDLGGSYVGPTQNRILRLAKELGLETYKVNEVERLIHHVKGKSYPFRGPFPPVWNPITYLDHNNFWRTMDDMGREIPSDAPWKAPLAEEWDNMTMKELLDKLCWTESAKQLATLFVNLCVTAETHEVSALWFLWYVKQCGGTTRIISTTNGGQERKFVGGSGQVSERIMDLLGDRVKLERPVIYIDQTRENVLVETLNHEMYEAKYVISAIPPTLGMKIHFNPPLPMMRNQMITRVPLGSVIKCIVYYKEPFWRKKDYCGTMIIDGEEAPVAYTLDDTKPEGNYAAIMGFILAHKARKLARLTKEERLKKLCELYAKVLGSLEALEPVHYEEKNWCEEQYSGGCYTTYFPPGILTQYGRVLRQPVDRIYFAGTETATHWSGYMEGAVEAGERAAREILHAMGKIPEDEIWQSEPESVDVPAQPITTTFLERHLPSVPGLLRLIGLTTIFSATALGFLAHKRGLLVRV
Experimental: (§1) To this end, a spectrophotometric method based on the oxidative deamination of Kynuramine by recombinant hMAO-A or hMAO-B was used.
(§2) The inhibitory activity of Bergamottin on hMAO-A and hMAO-B was studied using an experimental protocol described elsewhere. The hMAO inhibitory activity was assessed in microsomal MAO isoforms prepared from insect cells (BTI-TN-5B1-4) infected with recombinant baculovirus containing cDNA inserts for hMAO-A or hMAO-B, and by measuring the enzymatic conversion rates of Kynuramine into 4-hydroxyquinoline. […] All assays were performed in sodium phosphate buffer solution 50 mM pH 7.4.
(§3) Then, the reaction was started with the addition of hMAO-A or hMAO-B. Initial velocities were determined spectrophotometrically in a microplate reader (BioTek Synergy HT from BioTek Instruments, Winooski, VT, USA) at 37 °C by measuring the formation of 4-hydroxyquinoline at 316 nm, over a period of at least 30 min (interval of 1 min). Data were analyzed using GraphPad PRISM version 6 for Windows (GraphPad Software®, San Diego, CA, USA). […] IC50 values were obtained from dose–response curves and were expressed as mean ± standard deviation. IC50 values were determined from at least three independent experiments, each performed in triplicate. […]

hMAO-A = molecular target: T2, hMAO-A (Homo sapiens, UniProt P21397); experiment: In vitro hMAO-A inhibition, spectrophotometric Kynuramine deamination assay; assay type: biochemical
T2 construct: purchased Sigma-Aldrich; host or cells: insect cells (BTI-TN-5B1-4), recombinant baculovirus
T2 sequence (P21397 1-527): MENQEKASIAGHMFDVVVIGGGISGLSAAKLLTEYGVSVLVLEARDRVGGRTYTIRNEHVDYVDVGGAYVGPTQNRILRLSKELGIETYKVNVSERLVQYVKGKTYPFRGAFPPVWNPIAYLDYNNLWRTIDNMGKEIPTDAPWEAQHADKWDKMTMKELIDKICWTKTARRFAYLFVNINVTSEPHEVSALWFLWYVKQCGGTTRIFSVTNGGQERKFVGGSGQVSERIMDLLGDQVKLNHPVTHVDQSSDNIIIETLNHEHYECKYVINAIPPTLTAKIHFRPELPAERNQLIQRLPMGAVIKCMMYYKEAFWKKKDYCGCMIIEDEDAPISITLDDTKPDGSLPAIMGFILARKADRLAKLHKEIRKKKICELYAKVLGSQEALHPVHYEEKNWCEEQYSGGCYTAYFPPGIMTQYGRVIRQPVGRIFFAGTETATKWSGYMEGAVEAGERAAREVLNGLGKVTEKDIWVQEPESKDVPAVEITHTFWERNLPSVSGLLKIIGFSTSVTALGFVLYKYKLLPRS
Experimental: as §1, §2, §3

Q: With `CC(C)=CCC/C(C)=C/COc1c2ccoc2cc2oc(=O)ccc12` [Bergamottin] as the compound, how does the IC50 (hMAO-B; recombinant hMAO-B, Kynuramine substrate) read?
A: The IC50 was 0.291 µM.

Q: What about the “SI (selectivity index)” value (hMAO-B; selectivity for hMAO-B over hMAO-A from the IC50 values) of the same compound?
A: Its value is 31.8.

Q: What about the IC50 (hMAO-A) of the same compound?
A: The IC50 was 9.25 ± 0.91 µM.
